Columns and labels:
[1] = compound: CN(C)CC[C@H](CSc1ccccc1)Nc1ccc(S(=O)(=O)NC(=O)c2ccc(N3CCN(Cc4ccccc4-c4ccc(Cl)cc4)CC3)cc2)cc1[N+](=O)[O-] [ABT-737]
[2] = compound: CCNC(=O)c1noc(-c2cc(C(C)C)c(O)cc2O)c1-c1ccc(CN2CCOCC2)cc1 [Luminespib/NVP-AUY922]
[3] = compound: COc1cc2nccc(Oc3ccc(NC(=O)C4(C(=O)Nc5ccc(F)cc5)CC4)cc3)c2cc1OC [Cabozantinib]
[4] = compound: COc1ccc2c(c1)[C@]1(C[C@H]1c1ccc3c(/C=C/c4ccc(CN5C[C@@H](C)O[C@@H](C)C5)cc4)n[nH]c3c1)C(=O)N2
[5] = compound: CN(C)C/C=C/C(=O)NC1=CC=C(C=C1)C(=O)NC2=CC=CC(=C2)NC3=NC=NC(=C3)C4=CNC5=CC=CC=C54 [THZ-P1-2]
[6] = compound: CC(=O)O[C@H]1C(=O)[C@@]2(C)[C@H]([C@H](OC(=O)c3ccccc3)[C@]3(O)C[C@H](OC(=O)[C@H](O)[C@@H](NC(=O)c4ccccc4)c4ccccc4)C(C)=C1C3(C)C)[C@]1(OC(C)=O)CO[C@@H]1C[C@@H]2O [Paclitaxel]
[7] = compound: C=CCn1c(=O)c2cnc(Nc3ccc(N4CCN(C)CC4)cc3)nc2n1-c1cccc(C(C)(C)O)n1 [AZD1775]
[8] = compound: C[C@@H]1COCCN1c1cc(C2([S@](C)(=N)=O)CC2)nc(-c2cc[nH]c3nccc2-3)n1 [AZD6738]
[9] = compound: CS(=O)(=O)N1CCN(Cc2cc3nc(-c4cccc5[nH]ncc45)nc(N4CCOCC4)c3s2)CC1 [Pictilisib/GDC0941]
[10] = compound: Cc1nn(C)c(COc2ccc(N3CCN(S(=O)(=O)N(C)C)CC3)cc2)c1-c1cccc2c(CCCOc3cccc4ccccc34)c(C(=O)O)n(CCN3CCOCC3)c12
[11] = compound: CCc1cnn2c(NCc3ccc[n+]([O-])c3)cc(N3CCCC[C@H]3CCO)nc12
[12] = compound: CCN1CCN(Cc2ccc(Nc3ncc(F)c(-c4cc(F)c5nc(C)n(C(C)C)c5c4)n3)nc2)CC1
[13] = compound: CN1CC[C@H](c2c(O)cc(O)c3c(=O)cc(-c4ccccc4Cl)oc23)[C@H](O)C1 [Flavopiridol]
[14] = compound: CC1=CN2C(=O)C=C(N=C2C(=C1)C(C)NC3=CC=CC=C3)N4CCOCC4 [TGX221]
[15] = compound: NC1(C(=O)N[C@@H](CCO)c2ccc(Cl)cc2)CCN(c2nc[nH]c3nccc2-3)CC1 [AZD5363]
[16] = compound: Nc1cc(C(F)(F)F)c(-c2cc(N3CCOCC3)nc(N3CCOCC3)n2)cn1 [Buparlisib/NVP-BKM120]
[17] = compound: CC1(CCN(CC1)C2=CN=C(C(=N2)N)C3=C(C(=CC=C3)Cl)Cl)N [SHP099]
[18] = compound: CN(C)C(=O)c1cc2cnc(Nc3ccc(N4CCNCC4)cn3)nc2n1C1CCCC1 [LEE011/Ribociclib]
[19] = compound: COc1cc2c(Oc3ccc4[nH]c(C)cc4c3F)ncnc2cc1OCCCN1CCCC1 [Cediranib/AZD2171]
[20] = compound: CN1CCN(CCOc2cc(OC3CCOCC3)c3c(Nc4c(Cl)ccc5c4OCO5)ncnc3c2)CC1 [Saracatinib/AZD0530]
[21] = compound: CN(C)C/C=C/C(=O)Nc1ccc(C(=O)Nc2cccc(Nc3ncc(Cl)c(-c4c[nH]c5ccccc45)n3)c2)cc1 [THZ1]
[22] = compound: CC(C)Nc1cc(-c2c[nH]c(C(=O)N[C@H](CO)c3cccc(Cl)c3)c2)c(Cl)cn1 [BVD523]
[23] = compound: C1=CC(=CC(=C1)N2C(=O)C=CC3=CN=C4C=CC(=CC4=C32)C5=CN=C(C=C5)N)C(F)(F)F [Torin2]
[24] = compound: CNc1nc(-c2ccc3c(N)n[nH]c3c2)cc(N2C[C@@H](C(=O)NC3CCCCC3)CC[C@H]2C)n1
[25] = compound: CCCCOc1c(C(=O)c2c(F)cc(C)cc2F)c[nH]c2nncc1-2
[26] = compound: O=C1NC(=O)[C@@H](c2cn3c4c(cccc24)CCC3)[C@@H]1c1c[nH]c2ccccc12 [Tivantinib/ARQ197]
[27] = compound: Cc1nc(NC(=O)N2CCC[C@H]2C(N)=O)sc1-c1ccnc(C(C)(C)C(F)(F)F)c1 [Alpelisib/BYL719]
[28] = compound: NC(=O)Nc1cc(-c2cccc(F)c2)sc1C(=O)N[C@H]1CCCNC1 [AZD7762]
[29] = compound: CC(C)NC[C@@H](C(=O)N1CCN(c2ncnc3c2[C@H](C)C[C@H]3O)CC1)c1ccc(Cl)cc1 [Ipatasertib/GDC0068]
[30] = compound: O=C(c1cc(Cc2n[nH]c(=O)c3ccccc23)ccc1F)N1CCN(C(=O)C2CC2)CC1 [Olaparib/AZD2281]
[31] = compound: CCC1=CN=CN=C1N2CCN(CC2)CC3=NC4=C(N3)C=C(C=C4)C(F)(F)F
[32] = compound: C1=CC2=C(C=CC(=C2)C=C3C(=O)NC(=NCC4=CC=CS4)S3)N=C1 [R0-3306]
[33] = compound: CN1CCN(C(=O)c2ccc3cc(CCNc4ncnc5ccc(C#N)cc45)ccc3c2)CC1 [senexin b]
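Also: breast cancer and non-malignant breast epithelial cell lines, Deep Dye Drop or Dye Drop imaging, nine half-log doses, GR normalized to time-zero plates and DMSO-only controls.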

Cell Line: PDXHCI002
- GR50, 72 h [1]: 5.62 µM
- GR50, 72 h [2]: 0.00439 µM
- GR50, 72 h [3]: 7.21 µM
- GR50, 72 h [4]: 0.00689 µM
- GR50, 72 h [5]: > 10 µM
- GR50, 72 h [6]: 0.00249 µM
- GR50, 72 h [7]: 0.23 µM
- GR50, 72 h [8]: > 10 µM
- GR50, 72 h [9]: 2.25 µM
- GR50, 72 h [10]: > 10 µM
- GR50, 72 h [11]: 0.0122 µM
- GR50, 72 h [12]: 0.0484 µM
- GR50, 72 h [13]: 0.114 µM
- GR50, 72 h [14]: > 10 µM
- GR50, 72 h [15]: > 10 µM
- GR50, 72 h [16]: 1.44 µM
- GR50, 72 h [17]: > 10 µM
- GR50, 72 h [18]: > 10 µM
- GR50, 72 h [19]: 1.47 µM
- GR50, 72 h [20]: 0.0805 µM
- GR50, 72 h [21]: 0.0115 µM
- GR50, 72 h [22]: 4.27 µM
- GR50, 72 h [23]: 0.123 µM
- GR50, 72 h [24]: > 10 µM
- GR50, 72 h [25]: 3.29 µM
- GR50, 72 h [26]: 0.238 µM
- GR50, 72 h [27]: > 10 µM
- GR50, 72 h [28]: 0.0705 µM
- GR50, 72 h [29]: > 10 µM
- GR50, 72 h [30]: 3.93 µM
- GR50, 72 h [31]: > 10 µM
- GR50, 72 h [32]: 6.43 µM
- GR50, 72 h [33]: > 10 µM

Source: the supplement of paper PMC9663587
